Experiments:
Mouse PO PK = details: in vivo, 10 mg/kg, PO 10 mpk
TXK = TXK (Homo sapiens (Human), UniProt P42681); test: IC50 against TXK; type: biochemical; details: for TXK/ITK: ratio of TXK IC50 to ITK IC50
BTK = BTK (Homo sapiens (Human), UniProt Q06187); test: IC50 against BTK; type: biochemical
JAK3 = JAK3 (Homo sapiens (Human), UniProt P52333); test: IC50 against JAK3; type: biochemical
ITK = ITK (Homo sapiens (Human), UniProt Q08881); test: IC50 against ITK; type: biochemical
Rat PO PK = details: in vivo, 6 mg/kg, PO 6 mpk
Jurkat IL2 = Jurkat IL2 IC50; type: cell-based; details: Homo sapiens, Jurkat cells

TXK, sequence (P42681 whole entry, species assumed): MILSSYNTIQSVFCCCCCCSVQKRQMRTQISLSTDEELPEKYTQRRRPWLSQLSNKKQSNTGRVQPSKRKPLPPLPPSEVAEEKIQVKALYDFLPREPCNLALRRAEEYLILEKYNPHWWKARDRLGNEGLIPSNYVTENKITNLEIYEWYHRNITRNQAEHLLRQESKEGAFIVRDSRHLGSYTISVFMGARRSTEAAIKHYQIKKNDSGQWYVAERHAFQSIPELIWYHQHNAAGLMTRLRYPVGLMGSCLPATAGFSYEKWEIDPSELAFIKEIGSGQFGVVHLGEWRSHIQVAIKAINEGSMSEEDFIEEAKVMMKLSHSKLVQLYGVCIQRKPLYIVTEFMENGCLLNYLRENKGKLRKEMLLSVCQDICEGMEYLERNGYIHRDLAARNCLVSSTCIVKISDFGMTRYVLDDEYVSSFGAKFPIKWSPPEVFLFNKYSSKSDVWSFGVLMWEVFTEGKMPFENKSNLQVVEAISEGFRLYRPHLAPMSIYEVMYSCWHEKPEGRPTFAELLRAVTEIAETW
BTK, sequence (Q06187 whole entry, species assumed): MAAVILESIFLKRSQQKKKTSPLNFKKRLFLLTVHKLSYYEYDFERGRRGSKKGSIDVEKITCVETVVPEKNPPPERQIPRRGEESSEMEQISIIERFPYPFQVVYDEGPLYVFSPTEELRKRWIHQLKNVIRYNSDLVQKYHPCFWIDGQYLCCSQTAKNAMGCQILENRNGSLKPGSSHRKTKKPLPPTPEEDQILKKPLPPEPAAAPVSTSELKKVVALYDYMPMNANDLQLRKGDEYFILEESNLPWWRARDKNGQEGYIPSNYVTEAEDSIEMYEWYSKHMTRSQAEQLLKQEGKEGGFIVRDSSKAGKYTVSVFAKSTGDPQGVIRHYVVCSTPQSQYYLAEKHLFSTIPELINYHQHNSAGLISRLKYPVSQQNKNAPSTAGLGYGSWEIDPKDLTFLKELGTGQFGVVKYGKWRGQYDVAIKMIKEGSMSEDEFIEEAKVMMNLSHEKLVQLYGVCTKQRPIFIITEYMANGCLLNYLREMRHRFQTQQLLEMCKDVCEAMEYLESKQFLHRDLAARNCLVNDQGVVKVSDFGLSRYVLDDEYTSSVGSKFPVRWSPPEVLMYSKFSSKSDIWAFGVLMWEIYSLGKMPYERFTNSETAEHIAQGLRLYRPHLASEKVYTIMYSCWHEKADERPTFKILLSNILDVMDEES
ITK, sequence (Q08881 whole entry): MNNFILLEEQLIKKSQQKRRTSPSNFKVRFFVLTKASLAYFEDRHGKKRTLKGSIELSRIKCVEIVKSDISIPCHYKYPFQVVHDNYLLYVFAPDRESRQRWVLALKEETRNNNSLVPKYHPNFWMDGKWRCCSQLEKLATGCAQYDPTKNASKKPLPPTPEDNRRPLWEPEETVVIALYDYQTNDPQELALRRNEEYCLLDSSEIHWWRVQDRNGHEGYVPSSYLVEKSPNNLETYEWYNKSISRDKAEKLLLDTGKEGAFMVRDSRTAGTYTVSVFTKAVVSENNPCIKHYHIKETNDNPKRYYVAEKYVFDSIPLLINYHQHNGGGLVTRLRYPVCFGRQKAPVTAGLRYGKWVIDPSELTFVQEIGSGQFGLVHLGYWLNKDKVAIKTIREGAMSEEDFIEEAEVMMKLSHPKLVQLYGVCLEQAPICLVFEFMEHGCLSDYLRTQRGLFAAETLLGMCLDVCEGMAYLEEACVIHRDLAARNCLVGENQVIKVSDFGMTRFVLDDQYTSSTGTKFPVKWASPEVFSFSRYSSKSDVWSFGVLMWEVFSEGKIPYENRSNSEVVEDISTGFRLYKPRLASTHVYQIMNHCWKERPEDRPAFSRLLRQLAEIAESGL
JAK3, sequence (P52333 whole entry, species assumed): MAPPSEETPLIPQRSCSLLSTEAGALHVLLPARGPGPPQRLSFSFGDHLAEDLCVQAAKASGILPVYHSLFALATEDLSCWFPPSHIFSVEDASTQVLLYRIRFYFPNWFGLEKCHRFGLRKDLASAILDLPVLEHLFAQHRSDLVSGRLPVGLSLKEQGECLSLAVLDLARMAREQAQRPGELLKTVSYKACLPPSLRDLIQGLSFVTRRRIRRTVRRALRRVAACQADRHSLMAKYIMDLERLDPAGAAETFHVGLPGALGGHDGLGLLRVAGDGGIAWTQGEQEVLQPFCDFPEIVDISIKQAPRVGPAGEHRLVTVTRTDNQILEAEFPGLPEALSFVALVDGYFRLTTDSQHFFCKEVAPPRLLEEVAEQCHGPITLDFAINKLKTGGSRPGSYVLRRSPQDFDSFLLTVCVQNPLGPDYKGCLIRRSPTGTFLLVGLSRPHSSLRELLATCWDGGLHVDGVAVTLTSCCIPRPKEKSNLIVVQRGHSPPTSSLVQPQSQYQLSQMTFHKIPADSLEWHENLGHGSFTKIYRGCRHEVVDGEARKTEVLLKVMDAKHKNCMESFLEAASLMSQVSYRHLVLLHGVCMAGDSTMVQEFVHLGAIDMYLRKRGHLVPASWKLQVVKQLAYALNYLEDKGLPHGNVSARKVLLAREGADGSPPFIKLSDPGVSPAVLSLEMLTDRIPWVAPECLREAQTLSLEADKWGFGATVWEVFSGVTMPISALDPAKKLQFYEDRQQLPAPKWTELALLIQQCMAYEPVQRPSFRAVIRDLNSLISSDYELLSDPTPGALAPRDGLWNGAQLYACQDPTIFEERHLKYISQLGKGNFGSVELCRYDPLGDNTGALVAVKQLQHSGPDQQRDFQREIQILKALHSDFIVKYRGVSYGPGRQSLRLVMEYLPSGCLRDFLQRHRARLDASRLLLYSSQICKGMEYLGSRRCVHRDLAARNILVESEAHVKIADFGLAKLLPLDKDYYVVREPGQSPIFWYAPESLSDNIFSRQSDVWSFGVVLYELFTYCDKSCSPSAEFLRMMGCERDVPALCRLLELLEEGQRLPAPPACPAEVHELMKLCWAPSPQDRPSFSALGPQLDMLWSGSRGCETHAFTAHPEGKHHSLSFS

Structure (SMILES) | AUC(0-t) (Mouse PO PK) [ng·h/mL] | Cmax (Mouse PO PK) [ng/mL] | bioavailability (Mouse PO PK) [%] | IC50 (TXK) [nM] | TXK/ITK (TXK) | IC50 (BTK) [nM] | IC50 (JAK3) [nM] | IC50 (ITK) [nM] | AUC(0-t) (Rat PO PK) [ng·h/mL] | Cmax (Rat PO PK) [ng/mL] | bioavailability (Rat PO PK) [%] | IC50 (Jurkat IL2) [nM]
C=CC(=O)N1CCN(C(=O)c2cc(Sc3cnc(NC(=O)C4CC4)s3)c(C)cc2OC)CC1 [Compound 1] | 335 | 613 | 20.1 | < 10 | 7.378 | 100 to 1000 | 100 to 1000 | < 10 | 10.9 | 97 | 10.9 | 10
C=CC(=O)N1CCN(C(=O)c2cc(Sc3cnc(NC(=O)C4CC4)s3)c(C)cc2OC)C[C@H]1C [Compound 21] | 215 | 292 | 10.5 | 10 to 100 | 22.223 | 100 to 1000 | 100 to 1000 | < 10 | 18.1 | 148 | 18.1 | 53
C=CC(=O)N1CCCN(C(=O)c2cc(Sc3cnc(NC(=O)c4cccc(CN(C)C)c4)s3)c(C)cc2OC)CC1 [Compound 33] |  |  |  | 1000 to 10000 | 239.91 | 100 to 1000 | 1000 to 10000 | < 10 | 0.4 | 15.7 | 0.4 | 100
C=CC(=O)N1CCCN(C(=O)c2cc(Sc3cnc(NC(=O)C4CC4)s3)c(C)cc2OC)C[C@H]1C [Compound 44] | 226 | 368 | 9.8 | 100 to 1000 |  | 100 to 1000 | 1000 to 10000 |  | 12.5 | 75 | 12.5 | 31
C=CC(=O)N1CCCN(C(=O)c2cc(Sc3cnc(NC(=O)c4ccc(F)c(CN(C)C)c4)s3)c(C)cc2OC)CC1 [Compound 50] |  |  |  | 1000 to 10000 | 230.63 | 100 to 1000 | 1000 to 10000 | < 10 | 3.4 | 25.2 | 3.4 | 36
C=CC(=O)N1CCN(C(=O)c2cc(Sc3cnc(NC(=O)c4ccsc4)s3)c(C)cc2OC)CC1 [Compound 90] | 419 | 527 | 20 | < 10 | 8.3141 | 10 to 100 | 10 to 100 | < 10 |  |  |  | 33
C=CC(=O)N1[C@@H]2CC[C@H]1CN(C(=O)c1cc(Sc3cnc(Nc4ccccn4)s3)c(C)cc1OC)C2 [Compound 150, 1-((1R, 5S)-3-(2-methoxy-4-methyl-5-((2-(pyridin-2-ylamino)thiazol-5-yl)thio)benzoyl)-3,8-diazabicyclo[3.2.1]octan-8-yl)prop-2-en-1-one] |  |  |  | < 10 | 1.76 | < 10 | 10 to 100 | < 10 |  |  |  | 
C=CC(=O)N1CCN(C(=O)c2cc(Sc3cnc(Nc4ccccn4)s3)c(C)cc2OC)[C@@H](C)C1 [Compound 151, (S)-1-(4-(2-methoxy-4-methyl-5-((2-(pyridin-2-ylamino)thiazol-5-yl)thio)benzoyl)-3-methylpiperazin-1-yl)prop-2-en-1-one] |  |  |  | < 10 | 6.43 | 10 to 100 | 10 to 100 | < 10 |  |  |  | 
C=CC(=O)N1CCC2(C1)CN(C(=O)c1cc(Sc3cnc(Nc4ccccn4)s3)c(C)cc1OC)C2 [Compound 152, 1-(2-(2-methoxy-4-methyl-5-((2-(pyridin-2-ylamino)thiazol-5-yl)thio)benzoyl)-2,6-diazaspiro[3.4]octan-6-yl)prop-2-en-1-one] |  |  |  | < 10 | 2.06 | 10 to 100 | 100 to 1000 | < 10 |  |  |  | 
C=CC(=O)N1CCN(C(=O)c2cc(Sc3cnc(Nc4ccccn4)s3)c(C)cc2OC)C[C@H]1C#N [Compound 153, (S)-1-acryloyl-4-(2-methoxy-4-methyl-5-((2-(pyridin-2-ylamino)thiazol-5-yl)thio)benzoyl)piperazine-2-carbonitrile] |  |  |  |  | 0.61 | < 10 | < 10 | < 10 |  |  |  | 
C=CC(=O)N1CC[C@@H](N(C)C(=O)c2cc(Sc3cnc(Nc4ccccn4)s3)c(C)cc2OC)C1 [Compound 154, (R)-N-(1-acryloylpyrrolidin-3-yl)-2-methoxy-N,4-dimethyl-5-((2-(pyridin-2-ylamino)thiazol-5-yl)thio)benzamide] |  |  |  | < 10 | 1.01 | < 10 | < 10 | < 10 |  |  |  | 
C=CC(=O)N1[C@@H]2CC[C@H]1CN(C(=O)c1cc(Sc3cnc(NC(=O)c4ccsc4)s3)c(C)cc1OC)C2 [Compound 155, N-(5-((5-((1R, 5S)-8-acryloyl-3,8-diazabicyclo[3.2.1]octane-3-carbonyl)-4-methoxy-2-methylphenyl)thio)thiazol-2-yl)thiophene-3-carboxamide] |  |  |  | < 10 | 2.73 | < 10 | 10 to 100 | < 10 |  |  |  | 
C=CC(=O)N1CCN(C(=O)c2cc(Sc3cnc(NC(=O)c4ccsc4)s3)c(C)cc2OC)C[C@H]1C#N [Compound 156, (S)-N-(5-((5-(4-acryloyl-3-cyanopiperazine-1-carbonyl)-4-methoxy-2-methylphenyl)thio)thiazol-2-yl)thiophene-3-carboxamide] |  |  |  | < 10 | 3.09 | < 10 | < 10 | < 10 |  |  |  | 
